Patent US20230058412A1, “Carbohydrate-Modified Particles and Particulate Formulations for Modulating an Immune Response” (NORTHWESTERN UNIVERSITY, priority 2015, published 2023)

Experiments:
RAW264.7 cells = assay: High-throughput screen of cytokine production by LPS-stimulated RAW264.7 macrophages; format: cell-based
From the text: Since macrophages are one immune cell thought to be important in immune responses, including tolerance through their production of a key immune mediator called Interleukin-10 (IL-10), we developed an in vitro approach to screening the effects of EDC-cells versus PLGA nanoparticles for their effects on IL-10 production.
We examined the proinflammatory response (IL-6) or anti-inflammatory response (IL-10), as outlined in FIG. 2.
Using the strategy in FIG. 2, we calculated the greatest fold change for cytokine production over a therapeutically relevant dose curve of 0.1, 1, 10, and 100 μM.
Using activated RAW macrophages we developed a high throughput screening method to identify tolerogenic signals.
In support of our overarching concept that ECDI-fixed NPs are lacking signals for induction of tolerogenic signals, we have examined the ability to modulate cytokine responses in a macrophage cell line (RAW264.7).

Mer = target: T1, Mer (Homo sapiens, UniProt Q12866); settings: exogenous ligand; cited from earlier work
T1 sequence (Q12866 21-999): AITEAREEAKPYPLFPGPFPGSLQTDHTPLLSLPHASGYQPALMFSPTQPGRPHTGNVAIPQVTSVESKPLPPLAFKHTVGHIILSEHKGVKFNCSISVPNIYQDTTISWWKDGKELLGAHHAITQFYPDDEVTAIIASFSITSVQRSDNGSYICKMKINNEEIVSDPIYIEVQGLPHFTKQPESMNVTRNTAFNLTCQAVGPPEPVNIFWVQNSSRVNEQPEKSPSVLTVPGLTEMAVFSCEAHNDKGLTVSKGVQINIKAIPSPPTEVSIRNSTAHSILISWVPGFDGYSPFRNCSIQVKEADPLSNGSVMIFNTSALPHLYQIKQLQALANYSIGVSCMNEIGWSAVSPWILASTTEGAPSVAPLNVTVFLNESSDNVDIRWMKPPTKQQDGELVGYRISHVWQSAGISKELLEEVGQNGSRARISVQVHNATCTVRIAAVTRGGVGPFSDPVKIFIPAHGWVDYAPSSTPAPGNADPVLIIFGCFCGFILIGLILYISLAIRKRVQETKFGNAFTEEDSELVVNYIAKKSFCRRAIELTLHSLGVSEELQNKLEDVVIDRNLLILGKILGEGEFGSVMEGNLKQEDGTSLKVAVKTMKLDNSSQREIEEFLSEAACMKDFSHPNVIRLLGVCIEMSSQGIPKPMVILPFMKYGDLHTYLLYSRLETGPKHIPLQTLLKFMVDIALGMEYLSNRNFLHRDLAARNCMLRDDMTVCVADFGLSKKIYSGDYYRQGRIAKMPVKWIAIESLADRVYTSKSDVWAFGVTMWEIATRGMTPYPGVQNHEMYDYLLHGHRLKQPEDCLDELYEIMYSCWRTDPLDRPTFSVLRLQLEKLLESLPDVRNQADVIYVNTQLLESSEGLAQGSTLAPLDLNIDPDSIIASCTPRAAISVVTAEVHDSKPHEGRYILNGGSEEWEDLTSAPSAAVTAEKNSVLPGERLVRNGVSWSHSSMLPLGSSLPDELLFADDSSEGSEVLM

RAW 264.7 macrophage = settings: cited from earlier work
allograft = settings: in vivo; cited from earlier work
CD209 = target: T2, CD209 (Homo sapiens, UniProt Q9NNX6); settings: cited from earlier work
T2 sequence (Q9NNX6 1-404): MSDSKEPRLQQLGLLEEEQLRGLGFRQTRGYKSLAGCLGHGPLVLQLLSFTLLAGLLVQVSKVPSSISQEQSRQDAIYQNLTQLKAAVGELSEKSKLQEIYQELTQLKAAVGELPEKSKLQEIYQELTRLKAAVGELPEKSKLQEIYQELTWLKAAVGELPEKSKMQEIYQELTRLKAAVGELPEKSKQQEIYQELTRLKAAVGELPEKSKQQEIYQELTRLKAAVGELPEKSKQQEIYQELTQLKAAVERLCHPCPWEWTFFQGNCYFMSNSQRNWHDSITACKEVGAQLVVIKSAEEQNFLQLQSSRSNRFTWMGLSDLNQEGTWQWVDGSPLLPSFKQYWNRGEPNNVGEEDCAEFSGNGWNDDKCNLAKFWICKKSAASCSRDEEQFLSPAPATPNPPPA

[1] = macrophages stimulated with LPS

CC(=O)N[C@H]1C(O)O[C@H](CO)[C@@H](O[C@@H]2O[C@H](CO)[C@H](O)[C@H](O)[C@H]2O)[C@@H]1O[C@@H]1O[C@@H](C)[C@@H](O)[C@@H](O)[C@@H]1O (some centres unmarked) [Lewis^x antigen]
IL-6 production (RAW264.7 cells; [1]): suppression of IL-6 production | IL-10 production (RAW264.7 cells; [1]): enhancement of IL-10

GAS6: Growth Arrest-Specific 6, cognate ligand for TAM RTKs
tyrosine autophosphorylation / signalling of Mer (Mer): stimulate tyrosine autophosphorylation of both Mer and Ax1

C[C@H]1O[C@@H](O[C@H]2CC[C@@]3(C)[C@@H](CC[C@]4(C)[C@@H]3C=C[C@]35OC[C@@]6(CCC(C)(C)C[C@H]63)[C@@H](O)C[C@]54C)[C@]2(C)CO)[C@H](O)[C@@H](O[C@@H]2O[C@H](CO)[C@@H](O)[C@H](O)[C@H]2O)[C@H]1O [saikosaponin A]
inflammatory response (decrease of pro-inflammatory cytokines, increase in IL-10/TGF13) (RAW 264.7 macrophage): inhibit this inflammatory response

C[C@H]1CC[C@@H]2N(C1)C[C@H]1[C@@H]3C[C@H]4[C@@H](C[C@H](O)[C@H]5C[C@@H](O)CC[C@@]54C)[C@@H]3CC[C@@H]1[C@]2(C)O [peimine]
inflammatory response (decrease of pro-inflammatory cytokines, increase in IL-10/TGF13) (RAW 264.7 macrophage): inhibit this inflammatory response

Protein S: cognate ligand for TAM RTKs
tyrosine autophosphorylation / signalling of Mer (Mer): only capable of signaling through Mer

C[C@H](O)[C@@H](O)[C@@H](O)[C@H](O)C=O [Fucose, L-Fucose]
tolerogenic signal (increase IL-10 secretion and/or decrease IL-6 secretion versus baseline) (RAW264.7 cells; macrophages activated with LPS, with or without ECDI-SP, dose curve 0.1, 1, 10, 100 μM): exhibiting a tolerogenic signal

CCCCCC(=O)CC(=O)/C=C/c1ccc(O)c(OC)c1 [6-dehydrogingerdione]
inflammatory response (decrease of pro-inflammatory cytokines, increase in IL-10/TGF13) (RAW 264.7 macrophage): inhibit this inflammatory response

Nc1ncnc2c1ncn2[C@@H]1O[C@H](CO)[C@@H](O)[C@H]1O [adenosine]
inflammatory response (decrease of pro-inflammatory cytokines, increase in IL-10/TGF13) (RAW 264.7 macrophage): inhibit this inflammatory response

CC(=O)N[C@H]1[C@H](O[C@H]2[C@@H](O)[C@@H](CO)O[C@@H](O[C@H]3[C@H](O)[C@@H](O)C(O)O[C@@H]3CO)[C@@H]2O)O[C@H](CO)[C@@H](O[C@@H]2O[C@H](CO)[C@H](O)[C@H](O)[C@H]2O)[C@@H]1O[C@@H]1O[C@@H](C)[C@@H](O)[C@@H](O)[C@@H]1O (some centres unmarked) [LNFPIII, Lacto-N-fuconentaose III]
allograft survival (allograft): prolong allograft survival | binding and signalling through CD209 (CD209): binds and signals through CD209
